Here are results for ten molecules from patent US12570684B2 (UNIVERSITY OF TENNESSEE RESEARCH FOUNDATION, priority 2020, dated 2026).

The subject of assay [1] is PD002. The assay can be described thus: Checkerboard synergy (FIC index) with paclitaxel. It counts as cell-based. On the procedure: The synergistic or antagonistic activities of CPPB were assessed in vitro via checkerboard technique.
Assay [2] deals with PD002. Description: Scratch (wound healing) assay. In kind it is cell-based. To be noted: 0.2 μM, 24 h; untreated PD002 63%. How it is done: Scratch Assay. A confluent monolayer was formed in 24-well plates. The monolayer was scratched by a sterile 200 μL pipette tip and washed with PBS to remove cell debris. Complete medium with CPPB (5) (0, 0.05, 0.1, 0.2 μM) were added and scratched areas were photographed with microscope. The scratched cells were incubated at 37° C., 5% CO2. After 24 h, medium was removed and cells were stained with a 1:1 mixture of crystal violet and PBS for 5 min., washed with PBS twice, and photographed with microscope. Wound areas were measured and recovered areas were calculated.

Assay [3] has as its target WecA (E. coli) (Escherichia coli, UniProt P0AC78). The assay can be described thus: WecA assay.
Description: Preparation of membrane fraction P-60 containing WecA. E. coli B21 wecA strain were harvested by centrifugation (4,700 rpm) at 4° C. followed by washing with 0.9% saline solution (thrice). The washed cell pellets were washed with homogenization buffer (containing 50 mM K2HPO4, 5 mM MgCl2, 5 mM 1,4-dithio-DL-threitol, and 10% glycerol, pH=7.2) (thrice), and approximately 5 g of pellet (wet weight) was collected. The washed cell pellets were suspended in homogenization buffer and disrupted by probe sonication on ice (5 s on and 2 s off for 1 min, then cool down for 1.5 min., 5 cycles, cool down for 15 min, and then, 5 s on and 2 s off for 1 min., cool down for 1.5 min, 5 cycles). The resulting suspension was centrifuged at 4,700×g for 15 min. at 4° C. to remove unbroken cells. The lysate was centrifuged at 25,000×g for 20 min. at 4° C. The supernatant was subjected to ultracentrifugation at 60,000×g for 1 h at 4° C. The supernatant was discarded, and the membrane fraction containing WecA enzyme (P-60) was suspended in the Tris-HCl buffer (pH=7.5). Total protein concentrations were approximately 8 to 10 mg/mL. Aliquots were stored in Eppendorf tubes at −80° C.
Assay [4] has as its target T1, DPAGT1 (Human) (Homo sapiens, UniProt Q9H3H5).
T1 construct: made in house; host or cells: Expi293 cells (suspension)
T1 sequence (Q9H3H5 1-408): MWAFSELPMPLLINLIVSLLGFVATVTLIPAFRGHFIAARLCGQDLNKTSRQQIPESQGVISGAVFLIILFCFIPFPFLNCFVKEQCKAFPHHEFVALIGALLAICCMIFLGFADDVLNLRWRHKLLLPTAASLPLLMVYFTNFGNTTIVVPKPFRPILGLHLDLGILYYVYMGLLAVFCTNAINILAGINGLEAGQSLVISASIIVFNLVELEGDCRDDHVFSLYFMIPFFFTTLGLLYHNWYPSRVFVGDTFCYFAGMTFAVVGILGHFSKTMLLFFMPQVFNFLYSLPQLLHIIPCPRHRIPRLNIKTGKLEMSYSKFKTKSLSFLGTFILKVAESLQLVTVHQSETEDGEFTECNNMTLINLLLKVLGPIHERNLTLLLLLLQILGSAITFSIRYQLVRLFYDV
The assay can be described thus: DPAGT1 assay. In kind it is biochemical. On the procedure:
DPAGT1 expression and purification. DPAGT1 was expressed in suspended Expi293 cells for 36 h. The cells were lysed by drawing through a 26 g needle (10 times) and membrane protein was extracted using buffer containing 1% decyl f3-D-maltopyranoside detergent. DPAGT1 was purified using HA-agarose resin and a superdex 200 size exclusion column.

Assay [5] has as its target T2, AglH (M. jannaschii) (Methanocaldococcus jannaschii, UniProt Q58513).
T2 sequence (Q58513 1-301): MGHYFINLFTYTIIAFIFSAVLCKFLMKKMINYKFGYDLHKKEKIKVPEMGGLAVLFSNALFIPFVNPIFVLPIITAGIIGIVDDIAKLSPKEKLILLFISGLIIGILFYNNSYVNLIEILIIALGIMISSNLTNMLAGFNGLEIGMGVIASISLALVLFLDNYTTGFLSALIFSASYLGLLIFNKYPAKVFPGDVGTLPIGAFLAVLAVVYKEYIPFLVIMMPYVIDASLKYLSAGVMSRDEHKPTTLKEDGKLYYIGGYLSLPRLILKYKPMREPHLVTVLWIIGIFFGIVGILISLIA
Description: AglH assay.

Assay [6] deals with MraY (Hydrogenivirga sp.) (Hydrogenivirga sp. 128-5-R1-1, UniProt Z9Y2G8N0L0). Description: MraY assay. It counts as biochemical. How it is done: Expression and purification of HyMraY. The gene mraY of Hydrogenivirga spp. 128-5-R1-1 was cloned with a N-terminal His6 tag into a pET22b vector. […] The proteins were purified using a nickel, cation exchange, and size exclusion chromatography.
Sequence of MraY (Hydrogenivirga sp.) (Z9Y2G8N0L0 7-365 limits assumed): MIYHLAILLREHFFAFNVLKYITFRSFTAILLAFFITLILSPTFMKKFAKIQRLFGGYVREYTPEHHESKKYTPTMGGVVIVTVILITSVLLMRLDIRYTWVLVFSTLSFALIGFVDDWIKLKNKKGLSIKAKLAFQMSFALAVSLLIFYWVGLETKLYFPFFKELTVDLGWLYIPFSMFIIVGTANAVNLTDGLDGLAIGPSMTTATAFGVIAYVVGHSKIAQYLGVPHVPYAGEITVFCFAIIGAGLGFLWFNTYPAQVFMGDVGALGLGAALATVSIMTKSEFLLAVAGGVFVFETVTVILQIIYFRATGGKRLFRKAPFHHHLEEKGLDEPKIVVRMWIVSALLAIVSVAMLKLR
MraY assay. MraY assay substrates, Park's nucleotide-N^ε-C6-dansylthiourea, neryl phosphate, were chemically synthesized according to the reported procedures.^7 Park's nucleotide-N^ε-C6-dansylthiourea (2 mM stock solution, 1.88 jiL), MgCl2 (0.5 M, 5 jiL), KCl (2 M, 5 jiL), Triton X-100 (0.5%, 5.63 jiL), Tris buffer (pH 8.0, 50 mM), neryl phosphate (0.1 M, 2.25 jiL), and inhibitor molecule (0-50 .ig/mL in Tris buffer) were placed in a 1.5 mL Eppendorf tube. […] (26° C.) and quenched with CHCl3 (100 jiL). […] The aqueous phase was assayed via reverse-phase HPLC.

Assay [7] concerns WecA. To be noted: background, reported; cited from earlier work.
Setting [8] is: read-out: IC50 AglH (M. jannaschii).

pIC50: −log10 of the molar value. In brackets after ≈: the same amount, converted by molar mass. Like-named read-outs stand apart in the source and are kept apart here. Some results are limits rather than exact numbers.

Sequence of WecA (E. coli) (P0AC78 whole entry): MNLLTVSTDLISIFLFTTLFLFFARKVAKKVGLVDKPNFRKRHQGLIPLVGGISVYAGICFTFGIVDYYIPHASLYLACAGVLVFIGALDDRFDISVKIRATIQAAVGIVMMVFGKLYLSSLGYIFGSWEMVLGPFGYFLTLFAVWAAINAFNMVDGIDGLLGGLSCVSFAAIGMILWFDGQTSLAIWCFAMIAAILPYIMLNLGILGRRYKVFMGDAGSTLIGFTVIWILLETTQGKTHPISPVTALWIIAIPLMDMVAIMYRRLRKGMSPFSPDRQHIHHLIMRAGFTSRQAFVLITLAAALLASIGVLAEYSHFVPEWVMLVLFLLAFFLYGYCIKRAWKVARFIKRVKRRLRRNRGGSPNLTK

With `CC(=O)O[C@H]1C(=O)[C@@]2(C)[C@H]([C@H](OC(=O)c3ccccc3)[C@]3(O)C[C@H](OC(=O)[C@H](O)[C@@H](NC(=O)c4ccccc4)c4ccccc4)C(C)=C1C3(C)C)[C@]1(OC(C)=O)CO[C@@H]1C[C@@H]2O` [Paclitaxel, reference compound], the pIC50 – broadly, the IC50 on a negative log10 scale, so that one unit is a factor of ten – in assay [1] (PD002, alone, read-out: IC50 of the single agent against PD002) was 5.90; in assay [1] (PD002, read-out: IC50 CB (paclitaxel in combination), entry 1, with CPPB 0.10 μM), 6.20; in assay [1] (PD002, read-out: IC50 CB (paclitaxel in combination), entry 2, with CPPB 0.10 μM) it was 6.80; in assay [1] (PD002, read-out: IC50 CB (paclitaxel in combination), entry 3, with CPPB 0.20 μM) it was 8.31; in assay [1] (PD002, read-out: IC50 CB (paclitaxel in combination), entry 4, with CPPB 0.20 μM), 7.70; in assay [1] (PD002, read-out: IC50 CB (paclitaxel in combination), entry 5, with CPPB 0.20 μM) it was 7.51. Moreover, the pIC50 was 7.70 in assay [1] (PD002, read-out: IC50 CB (paclitaxel in combination), entry 6, with CPPB 2.0 μM); 7.41 in assay [1] (PD002, read-out: IC50 CB (paclitaxel in combination), entry 7, with CPPB 2.0 μM); 6.51 in assay [1] (PD002, read-out: IC50 CB (paclitaxel in combination), entry 8, with CPPB 2.0 μM); 6.21 to 7.62 in assay [1] (PD002, read-out: IC50 of paclitaxel against PD002 in combination with CPPB, with CPPB (0.1-2.0 μM)). The “improvement of cytostatic activity of paclitaxel” value in assay [1] (in combination with CPPB (0.2-2.0 μM)) is on record as “over 250 times”.
As for `Nc1ccn([C@@H]2O[C@H](CO)[C@@H](O)C2(F)F)c(=O)n1` [Gemcitabine], the wound-healing rate in assay [2] was 43%.
Regarding `COC1C(O)[C@@H]([C@@H](O[C@H]2OC(C(=O)NCc3ccc(N4CCC(c5ccc(OC(F)(F)F)cc5)CC4)cc3)=C[C@H](O)[C@@H]2O)C(N)=O)O[C@H]1n1ccc(=O)[nH]c1=O` (stereo partly shown) [I-CPPB], the pIC50 in assay [3] is 4.70; in assay [4], 6.22; in assay [5] it was 4.82.
For `COC1C(O)[C@H](n2ccc(=O)[nH]c2=O)O[C@@H]1[C@@H](O[C@H]1OC(CNCc2ccc(N3CCC(c4ccc(OC(F)(F)F)cc4)CC3)cc2)=C[C@H](O)[C@@H]1O)C(N)=O` (stereo partly drawn) [CPPA, (2R)-2-(((2S,3S,4S)-3,4-Dihydroxy-6-(((4-(4-(4-(trifluoromethoxy)phenyl)piperidin-1-yl)benzyl)-amino)-methyl)-3,4-dihydro-2H-pyran-2-yl)oxy)-2-((2S,5R)-5-(2,4-dioxo-3,4-dihydropyrimidin-1(2H)-yl)-4-hydroxy-3-methoxytetrahydrofuran-2-yl)acetamide], the negative logarithm of the IC50 (pIC50) in assay [3] and in assay [5] was < 4.30 each time.
“(2S,3S,4S)-2-((1R)-2-Amino-1-(2S,5R)-5-(2,4-dioxo-3,4-dihydropyrimidin-1(2H)-yl)-3,4-dimethoxy-tetrahydrofuran-2-yl)-2-oxoethoxy)-3,4-dihydroxy-N-(4-(4-(4-(trifluoromethoxy)-phenyl)piperidin-1-yl)benzyl)-3,4-dihydro-2H-pyran-6-carboxamide [OM-CPPB]”: the pIC50 in assay [3] (read-out: IC50 WecA (E. coli)) is 5.00; in assay [4], 4.70; in assay [5] (setting [8]) it was 4.52; in assay [6], 5.30. Moreover, the “DPAGT1 inhibitory activity (in words)” value in assay [4] is listed as “very low- or no-DPAGT1 inhibitor”.
Consider “(2R)-2-(((2S,3S,4S)-3,4-dihydroxy-6-(((4-(4-(4-(trifluoromethoxy)phenyl)pipendin-1-yl)-benzyl)amino)methyl)-3,4-dihydro-2H-pyran-2-yl)oxy)-2-((2S,5R)-5-(2,4-dioxo-3,4-dihydro-pyrimidin-1(2H)-yl)-3-hydroxy-4-methoxytetrahydrofuran-2-yl)acetamide [I-CPPA]”, for which, in assay [3] (50 μM concentration), the “WecA inhibition at 50 μM” value is recorded as “did not inhibit”. For the same molecule, the pIC50 in assay [3] (read-out: IC50 WecA (E. coli)), in assay [4], in assay [5] (setting [8]) and in assay [6] was < 4.30 throughout. In addition, the “DPAGT1 inhibition at 50 μM” value in assay [4] (50 μM concentration) is recorded as “did not inhibit”. In assay [5] (50 μM concentration), the “AglH inhibition at 50 μM” value was “did not inhibit”. Also, in assay [6] (50 μM concentration), the “MraY inhibition at 50 μM” value is “did not inhibit”.
For `CCCCc1ccc(NC(=O)C2=CCN(C)[C@@H]([C@H](O[C@@H]3O[C@H](CN)[C@@H](O)[C@H]3O)[C@H]3O[C@@H](n4ccc(=O)[nH]c4=O)[C@H](O)[C@@H]3O)C(=O)N2C)cc1` [CPZEN-45], in assay [7], the “IC50 WecA” value is ~0.058 µg/mL (≈ 0.0842 µM).
For `COC1C(O)C(C(OC2OC(C(=O)NC3CCCCNC3=O)=CC(O)C2O)C(N)=O)OC1n1ccc(=O)[nH]c1=O` [iso-Capuramycin, (2S,3S,4S)-2-((1R)-2-Amino-1-(2S,5R)-5-(2,4-dioxo-3,4-dihydropyrimidin-1(2H)-yl)-3-hydroxy-4-methoxytetrahydrofuran-2-yl)-2-oxoethoxy)-3,4-dihydroxy-N—((S)-2-oxoazepan-3-yl)-3,4-dihydro-2H-pyran-6-carboxamide], the pIC50 was 4.52 in assay [3], 4.94 in assay [4] and 4.70 in assay [5].
As for `NC(=O)[C@H](O[C@H]1OC(C(=O)N[C@H]2CCCCNC2=O)=C[C@H](O)[C@@H]1O)[C@H]1O[C@@H](n2ccc(=O)[nH]c2=O)C(O)C1O` (stereo partly drawn) [Dimethyl capuramycin, (2S,3S,4S)-2-((1R)-2-Amino-1-((2S,5R)-5-(2,4-dioxo-3,4-dihydropyrimidin-1(2H)-yl)-3,4-dihydroxy-tetrahydrofuran-2-yl)-2-oxoethoxy)-3,4-dihydroxy-N—((S)-2-oxoazepan-3-yl)-3,4-dihydro-2H-pyran-6-carboxamide], the pIC50 in assay [3] was 4.46; in assay [4], < 4.30; in assay [5], < 4.30; in assay [6] it was < 4.30.
Consider `NC(=O)[C@H](O[C@H]1OC(C(=O)NCc2ccc(N3CCC(c4ccc(OC(F)(F)F)cc4)CC3)cc2)=C[C@H](O)[C@@H]1O)[C@H]1O[C@@H](n2ccc(=O)[nH]c2=O)C(O)C1O` (stereo partly drawn) [DM-CPPB, (2S,3S,4S)-2-((1R)-2-Amino-1-((2S,5R)-5-(2,4-dioxo-3,4-dihydropyrimidin-1(2H)-yl)-3,4-dihydroxy-tetrahydrofuran-2-yl)-2-oxoethoxy)-3,4-dihydroxy-N-(4-(4-(4-(trifluoromethoxy)phenyl)-piperidin-1-yl)benzyl)-3,4-dihydro-2H-pyran-6-carboxamide], for which the figures for the negative-log IC50 (pIC50) in assay [3] and in assay [5] were 4.52 and < 4.30, respectively.
